# Where two headings read alike, the source gives them in different places.
# What was measured:
# [1] = system: paclitaxel-induced pain associated with central sensitization in C57BL/6J mice; experiment: Mechanical allodynia (von Frey), paclitaxel-induced pain, topical PS 8% (Example 2); format: in vivo, mouse
# Excerpt: (§1) Food and water were available ad libitum.
# (§2) Paw withdrawn, licking or shaking were considered positive responses.
# [2] = system: vincristine-induced pain associated with central sensitization in C57BL/6J mice; experiment: Mechanical allodynia (von Frey), vincristine-induced pain, topical PS 8% (Example 2); format: in vivo, mouse
# Excerpt: as §1
# (§3) Protocol for the Treatment of Established Pain Associated with Central Sensitization with PS
# as §2
# [3] = system: oxaliplatin-induced pain associated with central sensitization in C57BL/6J mice; experiment: Mechanical allodynia (von Frey), oxaliplatin-induced pain, topical PS 8% (Example 2); format: in vivo, mouse
# Excerpt: as §1, §3, §2
# [4] = Safety of PS ointment applied to hind paws of mice; format: in vivo, mouse; conditions: PS ointment thrice daily to the hind paws of mice for up to 22 days
# Excerpt: This finding is in keeping with the known safety profile of PS.
# [5] = system: paclitaxel-induced central sensitization in C57/BL/6J mice; experiment: Cold allodynia (acetone test), paclitaxel model (Example 3); format: in vivo, mouse; conditions: PS 5% for 15 days; day 15
# Description: To determine the outcome of treatment, assessment of mechanical allodynia was performed. […] Both methods of assessing allodynia are described in Toma W, et al. Neuropharmacology 2017; 117:305-15. Mechanical and cold allodynia are determined at least one day apart in the same animal.
# The acetone test was used. Briefly, acetone was applied onto the plantar surface of each hind paw. The time each mouse spent licking, lifting, and/or shaking the hind paw recorded over 60 seconds was the score for cold allodynia. Measurements were performed on day-8 (before the first paclitaxel injection), the day of starting treatment (day 0) and then on day 15.
# [6] = system: paclitaxel-induced CIPN in C57BL/6J mice; experiment: PWT (von Frey), mouse model of CIPN, oral administration (Example 5); format: in vivo; conditions: day 7; oral gavage three times a day for 7 days, PS 50 mg/kg, sulindac 33 mg/kg
# Excerpt: CIPN was induced in mice with chemotherapeutic agents using established protocols (Carozzi et al, 2010; Currie et al, 2019; Eldridge et al, 2020). […] This dosing regimen of paclitaxel produces pain associated with CIPN with time courses that are similar to those of pain after paclitaxel administration in cancer patients.
# Group 1: naive mice (i.e. no paclitaxel, n=8) • 2. Group 2: paclitaxel only (n=8) • 3. Group 3: paclitaxel plus vehicle (n=8) • 4. […] Group 5: paclitaxel plus sulindac (n=8)
# The PWT test was performed on day 7.
# [7] = system: chronic constriction injury-induced peripheral neuropathy in C57BL/6J mice; experiment: Thermal allodynia PWL, chronic constriction injury model of PTPN, topical (Example 7); format: in vivo, mouse; conditions: PS 5% topical
# [8] = Pharmacokinetics and biodistribution of PS upon oral administration (Example 27); format: in vivo, rat; conditions: rats, single oral dose of PS 250 mg/kg; for AUC(0-t) / Cmax / half-life: Sprague-Dawley, rat; for AUC(0-t): read-out: AUC0-24 h; for Cmax: read-out: Cmax, Mean ± SEM
# Description: Approximately 800 μL of blood were collected through cardiac puncture and immediately centrifuged.
# Tissue samples were harvested using separate dissection instruments for each tissue sample to avoid cross contamination, and snap frozen. The levels of the test drug were determined by HPLC.
# As previously described (Wen et al, 2019), each plasma sample was mixed with double volume of acetonitrile and centrifuged at 13,200 rpm for 15 min. Tissue samples were weighed, ddH2O (100-300 μL, depending on tissue weight) was added, and they were homogenized. Following addition of acetonitrile (twice the volume of the homogenate), the mixture was sonicated for 10 min, centrifuged at 13,200 rpm for 15 min, and analyzed by HPLC, as reported (Wen et al, 2019).
# Briefly, the HPLC system consisted of a Waters Alliance 2695 Separations Module (Milford, MA, USA) equipped with a Waters 2998 photodiode array detector (328 nm) and a Thermo Hypersil BDS C18 column (150×4.6 mm, particle size 3 pm). The mobile phase consisted of a gradient between solvent A (formic acid, CH3CN, H2O (0.1:4.9:95 v/v/v)) and solvent B (CH3CN) at a flow rate of 1 mL-min−1 at 30° C. We applied gradient elution from 30 to 100% solvent B from 0-6 min, and it was maintained at 100% solvent B until 8 min.
# [9] = Preliminary in vivo evidence, topical PS hydrogel, PTPN (Example 6)
# [10] = Preliminary in vivo evidence, topical PS hydrogel, migraine pain (Example 12)
# [11] = Preliminary in vivo evidence, PS to the ocular surface, corneal neuropathic pain (Example 22); conditions: topical PS to the ocular surface
# [12] = PS to outer surface of the eyelid in a subject after LASIK (Example 22); format: in vivo; conditions: topical PS to the outer surface of the eyelid, one subject
# [13] = target: COX-1 (Homo sapiens, UniProt P23219); conditions: background statement; cited from earlier work
# [14] = target: T1, COX-2 (Homo sapiens, UniProt P35354); conditions: background statement; cited from earlier work
# T1 sequence (P35354 18-604): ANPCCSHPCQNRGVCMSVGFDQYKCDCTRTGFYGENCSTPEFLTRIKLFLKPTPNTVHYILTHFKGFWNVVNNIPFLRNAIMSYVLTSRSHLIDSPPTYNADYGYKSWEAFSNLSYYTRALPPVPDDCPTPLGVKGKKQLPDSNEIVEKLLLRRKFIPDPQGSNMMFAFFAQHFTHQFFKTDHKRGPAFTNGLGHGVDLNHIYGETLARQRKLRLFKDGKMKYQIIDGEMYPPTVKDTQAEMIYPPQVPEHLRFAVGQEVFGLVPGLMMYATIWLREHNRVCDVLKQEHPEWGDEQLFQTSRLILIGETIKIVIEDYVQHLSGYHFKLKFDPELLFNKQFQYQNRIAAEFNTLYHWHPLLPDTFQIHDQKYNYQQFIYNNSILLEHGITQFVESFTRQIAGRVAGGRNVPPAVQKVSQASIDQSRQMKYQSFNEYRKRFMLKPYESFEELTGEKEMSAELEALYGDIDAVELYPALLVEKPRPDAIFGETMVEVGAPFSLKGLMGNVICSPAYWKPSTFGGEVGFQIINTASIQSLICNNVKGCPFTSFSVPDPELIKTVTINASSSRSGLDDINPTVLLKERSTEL
# [15] = system: chronic constriction injury-induced peripheral neuropathy in C57BL/6J mice; experiment: PWT (von Frey), PTPN model, oral administration (Examples 9 and 10); conditions: day 6; PS orally three times a day for 6 days at 100 mg/kg
# Description: Group 1: ligation only (i.e, surgical control with no treatment, n=9) • 2. Group 2: vehicle (n=9) • 3.
# Mechanical allodynia was determined using the method of von Frey filaments in line with that performed in the earlier Examples. The PWT test was performed on day 6. The mechanical threshold, expressed as g, indicates the force of the von Frey filament to which the animal reacted.
# [16] = system: NTG-induced migraine in mice; experiment: PWT (von Frey), NTG-induced migraine mouse model, oral (Example 14); conditions: 30 min after oral dose given 30 min after NTG; PS 50 mg/kg, sulindac 33 mg/kg
# Description: In line with the earlier Examples, migraine was induced using 0.4 mg of NTG was administered sublingually in the form of a finely crushed 0.4 mg NTG tablet (Greenstone Brand).
# Group 1: baseline (i.e, no NTG treatment, n=6) • 2. Group 2: vehicle (n=6) • 3. […] Group 4: sulindac (n=6)
# Mechanical allodynia was determined using the method of von Frey filaments in line with that performed in the earlier Examples. […] The mechanical threshold, expressed as g, indicates the force of the von Frey filament to which the animal reacted.
# [17] = system: chronic constriction injury-induced peripheral neuropathy in C57BL/6J mice; experiment: PWT (von Frey), chronic constriction injury model of PTPN, topical (Example 7); conditions: day 14; PS 5% gel or sulindac 0.7% gel on left paw three times a day for 14 days; pregabalin once by oral gavage 1 h before
# Description: Group 1: ligation only (i.e, surgical control with no treatment, n=5-7) • 2. Group 2: vehicle control (n=5-7) • 3. […] Group 4: 0.7% sulindac (n=5-7) • 5.
# Briefly, for determining mechanical allodynia, pain threshold responses were measured using the well-established method of von Frey filaments in line with that performed in the earlier Examples. The PWT test was performed on day 14. The mechanical threshold, expressed as g, indicates the force of the von Frey filament to which the animal reacted.
# [18] = system: paclitaxel-induced CIPN in C57BL/6J mice; experiment: Thermal allodynia PWL (radiant heat), mouse model of CIPN, oral administration (Example 5); conditions: day 16 of treatment, oral PS 50 mg/kg, sulindac 33 mg/kg
# Description: Group 1: paclitaxel plus vehicle (n=8) • 2. […] Group 3: paclitaxel pluse sulindac (n=8)
# The animal is placed into a plastic box with an elevated glass floor. The beam of the lamp probe is focused on the paw plantar surface, until the animal withdraws the paw, and sensors in the device shut off the lamp. The thermal allodynia threshold is defined as the latency time until paw withdrawal (PWL) and expressed in seconds (sec) or thermal allodynia threshold.
# COX-1, sequence (P23219 24-599): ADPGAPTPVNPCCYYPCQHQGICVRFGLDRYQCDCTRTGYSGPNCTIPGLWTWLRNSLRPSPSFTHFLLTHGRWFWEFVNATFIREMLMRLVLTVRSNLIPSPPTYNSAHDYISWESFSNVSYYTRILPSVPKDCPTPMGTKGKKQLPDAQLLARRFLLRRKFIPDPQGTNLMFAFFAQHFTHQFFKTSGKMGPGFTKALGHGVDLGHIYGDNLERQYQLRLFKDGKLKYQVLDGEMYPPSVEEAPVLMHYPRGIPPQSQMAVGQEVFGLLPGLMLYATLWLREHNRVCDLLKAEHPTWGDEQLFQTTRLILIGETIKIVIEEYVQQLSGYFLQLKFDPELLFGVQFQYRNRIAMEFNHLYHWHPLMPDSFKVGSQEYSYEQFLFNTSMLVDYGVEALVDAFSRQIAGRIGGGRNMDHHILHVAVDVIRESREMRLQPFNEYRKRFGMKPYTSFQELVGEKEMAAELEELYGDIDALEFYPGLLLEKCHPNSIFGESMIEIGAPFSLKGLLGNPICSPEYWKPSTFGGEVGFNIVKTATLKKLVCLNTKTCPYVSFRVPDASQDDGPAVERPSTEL
smiles,measurement,setting,value
"CCOP(=O)(OCC)OCCCCOC(=O)CC1=C(C)/C(=C/c2ccc([S+](C)[O-])cc2)c2ccc(F)cc21 (centres unmarked) [PS, phosphosulindac]","mechanical allodynia score, mean±SEM","[1]; day 0 (initiation of treatment), paclitaxel-induced pain",0.79 ± 0.08 g
same,"mechanical allodynia score, mean±SEM","[1]; day 5, PS 8% ointment 3x/day to hind paws",1.17 ± 0.07 g
same,"mechanical allodynia score, mean±SEM","[1]; day 16, PS 8% ointment 3x/day to hind paws",2.49 ± 0.18 g
same,increase of allodynia score compared to day 0,[2]; PS 8% ointment 3x/day for 16 days,114%
same,"mechanical allodynia score, mean±SEM",[2]; day 16,1.5 ± 0.09 g
same,"mechanical allodynia score, mean±SEM","[3]; after PS treatment (day 22), PS 8% ointment 3x/day",1.8 ± 0.09 g
same,"mechanical allodynia score, mean±SEM",[3]; day -15 baseline of PS group,1.76 ± 0.13 g
same,topical or systemic side effects,[4],no topical or systemic side effects
same,cold allodynia score (acetone test),[5],3.1 ± 0.4 s
same,"PWT, g Mean ± SEM",[6],0.99 ± 0.13 g
same,"PWL, sec Mean ± SEM",[7],9.1 ± 2.9 s
same,AUC(0-t),[8]; cerebellum,0.2 µM·h
same,Cmax,[8]; cerebellum,0.3 ± 0.07 µM
same,AUC(0-t),[8]; medulla,0.3 µM·h
same,Cmax,[8]; medulla,0.5 ± 0.1 µM
same,half-life,[8]; stomach,3.3 h
same,AUC(0-t),[8]; stomach,1280 µM·h
same,Cmax,[8]; stomach,661 ± 6.5 µM
same,half-life,[8]; vagus nerve,3.3 h
same,AUC(0-t),[8]; vagus nerve,1.7 µM·h
same,Cmax,[8]; vagus nerve,1.2 ± 0.2 µM
same,detection in the systemic circulation,[8],No PS was detected
same,analgesic effect on neuropathic pain associated with PTPN,[9],striking analgesic effect
same,analgesic effect on migraine pain,[10],striking analgesic effect
same,analgesic effect on corneal neuropathic pain,[11],striking analgesic effect
same,effect on chronic pain after LASIK,[12],dramatically reduced chronic pain
same,inhibition of COX-1,[13],does not inhibit
same,inhibition of COX-2,[14],does not inhibit
same,"PWT, g Mean ± SEM",[15],1.63 ± 0.38 g
same,"PWT, g Mean ± SEM",[16],1.96 ± 0.49 g
same,"PWT, g Mean ± SEM",[17],1.30 ± 0.15 g
same,"PWL, sec Mean ± SEM",[18],10.78 ± 1.1 s
